Drawing on ChEMBL document CHEMBL1136506, “Solid-phase synthesis of cyclic RGD-furanoid sugar amino acid peptides as integrin inhibitors” (Bioorg Med Chem Lett, 2003), this text covers IC50 for five compounds.

The structures appear in SMILES notation. Numbered stars: 1 amine (or outer) side, 2 acyl side, 3 side chain; on linkers, the order of the positions; unused ones are H or OH. Square brackets hold non-standard residues; d marks the D form. Peptide text beside a SMILES is read from it. X1 = O=C(C[C@@H]1O[C@H](CN[*:1])[C@@H](O)[C@H]1O)[*:2]

Test [1] deals with T1, Integrin alpha-V/beta-3 (Homo sapiens, UniProt P05106+P06756). The test can be described thus: Displacement of [125I]-echistatin from alphaV-beta3 integrin of human skin fibroblasts at 1 mM (Inactive). Type of test: protein-complex assay. On the technique in general: Displacement assays read how much labelled ligand stays bound in the presence of the test substance.
T1 sequence (P05106 27-788 limits assumed): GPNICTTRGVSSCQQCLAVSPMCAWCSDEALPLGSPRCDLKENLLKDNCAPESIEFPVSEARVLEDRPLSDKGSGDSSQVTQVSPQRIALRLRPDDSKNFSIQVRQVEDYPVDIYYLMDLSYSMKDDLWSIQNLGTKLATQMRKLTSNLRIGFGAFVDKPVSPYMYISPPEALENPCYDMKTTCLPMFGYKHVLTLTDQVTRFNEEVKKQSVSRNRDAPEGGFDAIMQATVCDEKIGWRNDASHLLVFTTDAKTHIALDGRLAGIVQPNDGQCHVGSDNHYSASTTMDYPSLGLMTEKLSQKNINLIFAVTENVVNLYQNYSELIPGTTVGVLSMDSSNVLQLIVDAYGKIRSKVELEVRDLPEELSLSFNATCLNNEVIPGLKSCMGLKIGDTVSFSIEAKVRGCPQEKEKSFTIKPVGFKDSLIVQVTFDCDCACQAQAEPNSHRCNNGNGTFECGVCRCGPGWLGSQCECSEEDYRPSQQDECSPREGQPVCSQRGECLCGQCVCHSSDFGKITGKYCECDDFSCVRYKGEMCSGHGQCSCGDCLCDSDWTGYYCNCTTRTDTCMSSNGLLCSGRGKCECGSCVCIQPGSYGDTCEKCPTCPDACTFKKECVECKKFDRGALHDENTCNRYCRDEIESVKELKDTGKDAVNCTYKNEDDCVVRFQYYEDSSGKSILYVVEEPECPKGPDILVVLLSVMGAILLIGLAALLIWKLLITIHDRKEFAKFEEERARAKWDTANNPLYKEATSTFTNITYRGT
T1 sequence (P06756 31-889 limits assumed): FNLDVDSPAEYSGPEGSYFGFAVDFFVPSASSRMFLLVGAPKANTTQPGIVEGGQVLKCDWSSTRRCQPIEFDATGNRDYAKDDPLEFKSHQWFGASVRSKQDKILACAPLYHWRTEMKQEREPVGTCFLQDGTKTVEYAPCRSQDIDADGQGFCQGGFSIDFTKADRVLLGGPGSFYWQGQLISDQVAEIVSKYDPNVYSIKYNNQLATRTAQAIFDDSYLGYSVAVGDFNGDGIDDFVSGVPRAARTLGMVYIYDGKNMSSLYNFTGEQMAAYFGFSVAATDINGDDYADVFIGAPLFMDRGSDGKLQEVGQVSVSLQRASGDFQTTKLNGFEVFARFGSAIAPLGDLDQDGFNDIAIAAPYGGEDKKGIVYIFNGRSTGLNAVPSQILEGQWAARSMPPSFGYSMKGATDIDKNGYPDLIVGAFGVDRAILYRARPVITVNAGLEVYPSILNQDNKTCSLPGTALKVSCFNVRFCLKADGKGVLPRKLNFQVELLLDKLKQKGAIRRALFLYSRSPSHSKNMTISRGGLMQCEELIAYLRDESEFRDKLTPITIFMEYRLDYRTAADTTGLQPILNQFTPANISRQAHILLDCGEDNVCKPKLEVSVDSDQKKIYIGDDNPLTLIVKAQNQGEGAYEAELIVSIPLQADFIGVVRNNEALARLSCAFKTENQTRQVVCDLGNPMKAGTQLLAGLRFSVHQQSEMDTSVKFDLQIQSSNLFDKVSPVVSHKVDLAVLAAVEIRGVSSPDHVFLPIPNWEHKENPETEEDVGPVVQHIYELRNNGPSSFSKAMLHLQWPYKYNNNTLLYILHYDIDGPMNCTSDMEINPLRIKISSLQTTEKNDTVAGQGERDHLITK
T1 sequence (P06756 891-1048 limits assumed): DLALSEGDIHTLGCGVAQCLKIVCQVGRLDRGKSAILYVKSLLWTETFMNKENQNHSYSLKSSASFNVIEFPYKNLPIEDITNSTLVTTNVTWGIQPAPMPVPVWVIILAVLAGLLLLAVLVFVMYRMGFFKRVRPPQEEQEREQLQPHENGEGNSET
In test [2] the target is T2, Integrin alpha-IIb/beta-3 (Homo sapiens, UniProt P05106+P08514). The test can be described thus: Displacement of [125I]echistatin from alphaIIb-beta3 integrin of human platelets at 1 mM (Inactive).
T2 sequence (P05106 27-788 limits assumed): as the sequence (P05106 27-788 limits assumed) above
T2 sequence (P08514 32-887 limits assumed): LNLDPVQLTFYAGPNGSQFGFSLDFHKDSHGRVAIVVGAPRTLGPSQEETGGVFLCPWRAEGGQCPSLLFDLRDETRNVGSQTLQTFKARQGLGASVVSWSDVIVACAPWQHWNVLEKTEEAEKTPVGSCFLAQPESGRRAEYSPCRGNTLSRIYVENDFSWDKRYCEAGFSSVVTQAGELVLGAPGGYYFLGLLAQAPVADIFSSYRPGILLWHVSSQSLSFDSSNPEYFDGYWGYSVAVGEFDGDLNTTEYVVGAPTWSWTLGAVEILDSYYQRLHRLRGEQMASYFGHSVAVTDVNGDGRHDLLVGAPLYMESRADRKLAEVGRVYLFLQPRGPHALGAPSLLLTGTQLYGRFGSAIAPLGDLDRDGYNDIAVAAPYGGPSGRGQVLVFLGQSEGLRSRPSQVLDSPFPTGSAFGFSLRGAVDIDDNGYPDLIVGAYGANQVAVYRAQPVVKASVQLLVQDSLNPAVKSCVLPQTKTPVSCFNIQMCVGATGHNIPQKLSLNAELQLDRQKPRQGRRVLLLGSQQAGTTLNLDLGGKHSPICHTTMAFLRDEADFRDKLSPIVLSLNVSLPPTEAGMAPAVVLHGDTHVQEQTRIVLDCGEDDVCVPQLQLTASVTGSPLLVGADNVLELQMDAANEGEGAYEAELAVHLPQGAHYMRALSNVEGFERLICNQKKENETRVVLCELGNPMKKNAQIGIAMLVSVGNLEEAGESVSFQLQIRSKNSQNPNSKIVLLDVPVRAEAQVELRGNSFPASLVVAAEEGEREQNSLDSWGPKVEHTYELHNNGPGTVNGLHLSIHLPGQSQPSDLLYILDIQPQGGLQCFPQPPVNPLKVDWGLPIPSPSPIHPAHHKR
T2 sequence (P08514 891-1039 limits assumed): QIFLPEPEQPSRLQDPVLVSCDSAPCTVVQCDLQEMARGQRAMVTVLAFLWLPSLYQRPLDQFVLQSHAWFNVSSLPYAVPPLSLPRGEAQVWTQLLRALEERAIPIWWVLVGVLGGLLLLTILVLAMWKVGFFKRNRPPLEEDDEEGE
Test [3] has as its target T1, Integrin alpha-V/beta-3. The test can be described thus: Displacement of [125I]echistatin from alphaV-beta3 integrin of human skin fibroblasts. Type of test: protein-complex assay.
The target in test [4] is T2, Integrin alpha-IIb/beta-3. Description: Displacement of [125I]echistatin from alphaIIb-beta3 integrin of human platelets.

Turning to `CC(C)[C@@H]1NC(=O)CNC(=O)C[C@@H]2O[C@H](CNC(=O)[C@H](CCCN=C(N)N)NC(=O)[C@H](CC(=O)O)NC1=O)[C@@H](O)[C@H]2O` (cyclo(DR[X1]GV)), the IC50 result (on Integrin alpha-V/beta-3 [1]; in test [2]) was “Not Active” each time.
In the case of `CC(C)[C@@H]1NC(=O)[C@H](CC(=O)O)NC(=O)CNC(=O)[C@H](CCCN=C(N)N)NC(=O)C[C@@H]2O[C@H](CNC1=O)[C@@H](O)[C@H]2O` (cyclo(RGDV[X1])), the IC50 (as a rule, the concentration needed to halve the response being measured) worked out at 98.1 µM on Integrin alpha-V/beta-3 [3] and 32.2 µM in test [4].
For the compound `N=C(N)NCCCC1NC(=O)C[C@@H]2O[C@H](CNC(=O)C(CC(=O)O)NC(=O)C[C@@H]3O[C@H](CNC1=O)[C@@H](O)[C@H]3O)[C@@H](O)[C@H]2O` (stereo not given in full), the IC50 entry (on Integrin alpha-V/beta-3 [1]; in test [2]) was “Not Active” throughout.
Take `N=C(N)NCCCC1NC(=O)C[C@@H]2O[C@H](CNC(=O)C[C@@H]3O[C@H](CNC(=O)C(CC(=O)O)NC(=O)CNC1=O)[C@@H](O)[C@H]3O)[C@@H](O)[C@H]2O` (stereo not given in full): the IC50 at Integrin alpha-V/beta-3 [3] came to 597 µM; in test [4] it was 198 µM.
The corresponding values for `N=C(N)NCCC[C@@H]1NC(=O)C[C@@H]2O[C@H](CNC(=O)[C@H](CC(=O)O)NC(=O)CNC1=O)[C@@H](O)[C@H]2O` are 1.49 µM and 0.384 µM.
